Structures can show the parent of a compound that is named as a salt.

In general, IC50 refers to the concentration that inhibits the measured activity by half.

This test concerns HIV. In words: MT4 Assay (anti-HIV activity). To be noted: Human immunodeficiency virus 1, 96 h, read-out: HIV MT4 Assay IC50, HTLV-1 transformed cell line MT-4, cell titer glo, 10 point dose response curve. The class given is cell-based. The procedure:
Antiviral HIV activity and cytotoxicity values for compounds of the invention from Table 1 were measured in parallel in the HTLV-1 transformed cell line MT-4 based on the method previously described (Hazen et al., 2007, In vitro antiviral activity of the novel, tyrosyl-based human immunodeficiency virus (HIV) type 1 protease inhibitor brecanavir (GW640385) in combination with other antiretrovirals and against a panel of protease inhibitor-resistant HIV (Hazen et al., “In vitro antiviral activity of the novel, tyrosyl-based human immunodeficiency virus (HIV) type 1 protease inhibitor brecanavir (GW640385) in combination with other antiretrovirals and against a panel of protease inhibitor-resistant HIV”, Antimicrob. Agents Chemother. 2007, 51: 3147-3154; and Pauwels et al., “Sensitive and rapid assay on MT-4 cells for the detection of antiviral compounds against the AIDS virus”, J. of Virological Methods 1987, 16: 171-185).
Luciferase activity was measured 96 hours later by adding a cell titer glo (Promega, Madison, Wis.). Percent inhibition of cell protection data was plotted relative to no compound control. Under the same condition, cytotoxicity of the compounds was determined using cell titer glo (Promega, Madison, Wis.). IC50s were determined from a 10 point dose response curve using 3-4-fold serial dilution for each compound, which spans a concentration range >1000 fold.
Background: In ATP-based viability assays light output follows the ATP content of the culture.
As to `Cc1c(-c2c([C@H](OC(C)(C)C)C(=O)O)n(C)c(=O)c3cc(CN4CCOCC4)ccc23)cc(F)c2c1CCCO2` (atropisomer, axis not shown; (M)) [Example 189, (S)(M)-2-(tert-butoxy)-2-(4-(8-fluoro-5-methylchroman-6-yl)-2-methyl-7-(morpholinomethyl)-1-oxo-1,2-dihydroisoquinolin-3-yl)acetic acid], the IC50 stood at 40 nM.

Take `Cc1ccc(N(C)c2c(C(OC(C)(C)C)C(=O)O)n(C)c(=O)c3ccccc23)cc1C` (stereo not shown) [Example 212, 2-(tert-Butoxy)-2-(4-((3,4-dimethylphenyl)(methyl)amino)-2-methyl-1-oxo-1,2-dihydroisoquinolin-3-yl)acetic acid]: the IC50 came to 50000 nM.

For the molecule `Cc1ccc(-c2c(C(OC(C)(C)C)C(=O)O)n(C)c(=O)c3cc(CC(C)C)ccc23)cc1C` (stereo not shown) [Example 172, [(1,1-dimethylethyl)oxy][4-(3,4-dimethylphenyl)-2-methyl-7-(2-methylpropyl)-1-oxo-1,2-dihydro-3-isoquinolinyl]acetic acid], the IC50 worked out at 270 nM.

On to `Cn1c(C(OC(C)(C)C)C(=O)O)c(-c2ccc3c(c2)CCCO3)c2cc(Cl)ccc2c1=O` (stereo not shown) [Example 26, 2-(tert-butoxy)-2-[6-chloro-4-(3,4-dihydro-2H-1-benzopyran-6-yl)-2-methyl-1-oxo-1,2-dihydroisoquinolin-3-yl]acetic acid], for which the IC50 amounted to 1900 nM.

Consider `CC(C)Oc1ccc(-c2c(C(OC(C)(C)C)C(=O)O)n(C)c(=O)c3ccccc23)cc1` (stereo not shown) [Example 45, 2-(tert-butoxy)-2-{2-methyl-1-oxo-4-[4-(propan-2-yloxy)phenyl]-1,2-dihydroisoquinolin-3-yl}acetic acid], for which the IC50 was 50000 nM.

With `Cc1c(-c2c(C(OC(C)(C)C)C(=O)O)n(C)c(=O)c3cc(OCc4c(F)cc(F)cc4F)ccc23)ccc2c1CCCO2` (stereo not shown) [Example 99, 2-(tert-butoxy)-2-[2-methyl-4-(5-methyl-3,4-dihydro-2H-1-benzopyran-6-yl)-1-oxo-7-[(2,4,6-trifluorophenyl)methoxy]-1,2-dihydroisoquinolin-3-yl]acetic acid], the IC50 turned out to be 130 nM.

Consider `CC(=O)NCc1ccc2c(-c3ccc(C)c(C)c3)c(C(OC(C)(C)C)C(=O)O)n(C)c(=O)c2c1` (stereo not shown) [Example 184, 2-(7-(acetamidomethyl)-4-(3,4-dimethylphenyl)-2-methyl-1-oxo-1,2-dihydroisoquinolin-3-yl)-2-(tert-butoxy)acetic acid], for which the IC50 is 31400 nM.

With `Cc1c(-c2c([C@H](OC(C)(C)C)C(=O)O)n(C)c(=O)c3cc(CN4CCCCC4)ccc23)cc(F)c2c1CCCO2` (atropisomer, axis not shown; (M)) [Example 190, (S)(M)-2-(tert-butoxy)-2-(4-(8-fluoro-5-methylchroman-6-yl)-2-methyl-1-oxo-7-(piperidin-1-ylmethyl)-1,2-dihydroisoquinolin-3-yl)acetic acid, Trifluoroacetic acid salt], the IC50 was 320 nM.

With `Cc1n[nH]c(C)c1-c1ccc2c(-c3cc(F)c4c(c3C)CCCO4)c([C@H](OC(C)(C)C)C(=O)O)n(C)c(=O)c2c1` (atropisomer, axis not shown; (M)) [Example 196, (2S)(M)-[(1,1-dimethylethyl)oxy][7-(3,5-dimethyl-1H-pyrazol-4-yl)-4-(8-fluoro-5-methyl-3,4-dihydro-2H-chromen-6-yl)-2-methyl-1-oxo-1,2-dihydro-3-isoquinolinyl]ethanoic acid], the IC50 amounted to 1160 nM.

On to `CCc1ccc(-c2c(C(OC(C)(C)C)C(=O)O)n(C)c(=O)c3ccccc23)cc1` (stereo not shown) [Example 47, 2-(tert-butoxy)-2-[4-(4-ethylphenyl)-2-methyl-1-oxo-1,2-dihydroisoquinolin-3-yl]acetic acid], for which the IC50 was 1850 nM.

For `Cc1c(-c2c([C@H](OC(C)(C)C)C(=O)O)n(C)c(=O)c3cc(OCc4cccs4)ccc23)ccc2c1CCCO2` [Example 111, (2S)-2-(tert-butoxy)-2-[2-methyl-4-(5-methyl-3,4-dihydro-2H-1-benzopyran-6-yl)-1-oxo-7-(thiophen-2-ylmethoxy)-1,2-dihydroisoquinolin-3-yl]acetic acid], the IC50 stood at 30 nM.

Turning to `Cc1c(-c2c([C@H](OC(C)(C)C)C(=O)NO)n(C)c(=O)c3ccccc23)cc(F)c2c1CCCO2` (atropisomer, axis not shown; (M)) [Example 213, (S)(M)-2-(tert-butoxy)-2-(4-(8-fluoro-5-methylchroman-6-yl)-2-methyl-1-oxo-1,2-dihydroisoquinolin-3-yl)-N-hydroxyacetamide], the IC50 is 5250 nM.

On to `Cc1ccc2c(=O)n(C)c(C(OC(C)(C)C)C(=O)O)c(-c3ccc(C)c(C)c3)c2c1` (stereo not shown) [Example 55, 2-(tert-butoxy)-2-[4-(3,4-dimethylphenyl)-2,6-dimethyl-1-oxo-1,2-dihydroisoquinolin-3-yl]acetic acid], for which the IC50 worked out at 2560 nM.

As to `Cc1c(-c2c(C(OC(C)(C)C)C(=O)O)n(C)c(=O)c3cc(OCCF)ccc23)ccc2c1CCCO2` (stereo not shown) [Example 89, 2-(tert-butoxy)-2-[7-(2-fluoroethoxy)-2-methyl-4-(5-methyl-3,4-dihydro-2H-1-benzopyran-6-yl)-1-oxo-1,2-dihydroisoquinolin-3-yl]acetic acid], the IC50 was determined as 400 nM.

Turning to `Cn1c(C(OC(C)(C)C)C(=O)O)c(-c2ccc3c(c2)OCCCO3)c2ccccc2c1=O` (stereo not shown) [Example 61, 2-(tert-butoxy)-2-[4-(3,4-dihydro-2H-1,5-benzodioxepin-7-yl)-2-methyl-1-oxo-1,2-dihydroisoquinolin-3-yl]acetic acid], the IC50 was 8700 nM.

For the molecule `Cc1c(-c2c(C(OC(C)(C)C)C(=O)O)n(C)c(=O)c3cc(OC(C)C)ccc23)ccc2c1CCCO2` (stereo not shown) [Example 135, 2-(tert-butoxy)-2-[2-methyl-4-(5-methyl-3,4-dihydro-2H-1-benzopyran-6-yl)-1-oxo-7-(propan-2-yloxy)-1,2-dihydroisoquinolin-3-yl]acetic acid], the IC50 worked out at 140 nM.

For the molecule `Cc1c(-c2c(C(OC(C)(C)C)C(=O)O)n(C)c(=O)c3cc(OS(=O)(=O)N(C)C)ccc23)ccc2c1CCCO2` (stereo not shown) [Example 123, 2-(tert-butoxy)-2-{7-[(dimethylsulfamoyl)oxy]-2-methyl-4-(5-methyl-3,4-dihydro-2H-1-benzopyran-6-yl)-1-oxo-1,2-dihydroisoquinolin-3-yl}acetic acid], the IC50 was 1220 nM.

On to `Cn1c(C(OC(C)(C)C)C(=O)O)c(-c2cnc3c(c2)CCCO3)c2ccccc2c1=O` (stereo not shown) [Example 118, 2-(tert-butoxy)-2-(2-methyl-1-oxo-4-{2H,3H,4H-pyrano[2,3-b]pyridin-6-yl}-1,2-dihydroisoquinolin-3-yl)acetic acid], for which the IC50 came to 41600 nM.

Consider `Cc1c(-c2c([C@H](OC(C)(C)C)C(=O)O)n(C)c(=O)c3cc(C(=O)N4CCOCC4)ccc23)cc(F)c2c1CCCO2` (atropisomer, axis not shown; (M)) [Example 169, (S)(M)-2-(tert-butoxy)-2-(4-(8-fluoro-5-methylchroman-6-yl)-2-methyl-7-(morpholine-4-carbonyl)-1-oxo-1,2-dihydroisoquinolin-3-yl)acetic acid], for which the IC50 was 22500 nM.

As for `COc1ccc2c(-c3cc(F)c4c(c3C)CCCO4)c([C@H](OC(C)(C)C)C(=O)O)n(C)c(=O)c2c1` [Example 106, (2S)-2-(tert-butoxy)-2-[4-(8-fluoro-5-methyl-3,4-dihydro-2H-1-benzopyran-6-yl)-7-methoxy-2-methyl-1-oxo-1,2-dihydroisoquinolin-3-yl]acetic acid], the IC50 is 40 nM.

For `Cc1ccc(-c2c(C(OC(C)(C)C)C(=O)O)n(C)c(=O)c3cc(F)ccc23)cc1C` (stereo not shown) [Example 87, 2-(tert-butoxy)-2-[4-(3,4-dimethylphenyl)-7-fluoro-2-methyl-1-oxo-1,2-dihydroisoquinolin-3-yl]acetic acid], the IC50 turned out to be 740 nM.

Turning to `COc1cc2c(=O)n(C)c(C(OC(C)(C)C)C(=O)O)c(-c3ccc4c(c3C)CCCO4)c2cc1Cl` (stereo not shown) [Example 130, 2-(tert-butoxy)-2-[6-chloro-7-methoxy-2-methyl-4-(5-methyl-3,4-dihydro-2H-1-benzopyran-6-yl)-1-oxo-1,2-dihydroisoquinolin-3-yl]acetic acid], the IC50 was found to be 3750 nM.

`Cc1ccc(-c2c(C(OC(C)(C)C)C(=O)O)n(C)c(=O)c3cc(CN)ccc23)cc1C` (stereo not shown) [Example 179, [7-(aminomethyl)-4-(3,4-dimethylphenyl)-2-methyl-1-oxo-1,2-dihydro-3-isoquinolinyl][(1,1-dimethylethyl)oxy]acetic acid-TFA salt]: the IC50 was determined as 50000 nM.

For `Cc1ccc(-c2c(C(OC(C)(C)C)C(=O)O)n(C)c(=O)c3cc(-c4cccn4C)ccc23)cc1C` (stereo not shown) [Example 191, [(1,1′-dimethylethyl)oxy][4-(3,4-dimethylphenyl)-2-methyl-7-(1-methyl-1H-pyrrol-2-yl)-1-oxo-1,2-dihydro-3-isoquinolinyl]acetic acid], the IC50 stood at 350 nM.

Consider `Cc1cc(C)c(-c2c(C(OC(C)(C)C)C(=O)O)n(C)c(=O)c3ccccc23)cc1C` (stereo not shown) [Example 43, 2-(tert-butoxy)-2-[2-methyl-1-oxo-4-(2,4,5-trimethylphenyl)-1,2-dihydroisoquinolin-3-yl]acetic acid], for which the IC50 was 370 nM.
